Patent US12173018B2, “Penicillin-binding protein inhibitors” (priority 2018, dated 2024)
pEC50: −log10 of the molar value. In brackets after ≈: the same amount, converted by molar mass. Like-named read-outs stand apart in the source and are kept apart here.

Key:
[1] = test system: N. gonorrhoeae ATCC 49226; experiment: Liquid broth MIC, N. gonorrhoeae ATCC 49226; type: cell-based; conditions: Neisseria gonorrhoeae, ATCC49226; N. gonorrhoeae ATCC 49226, liquid broth; read-out: Minimum Inhibitory Concentration, N. gonorrhoeae ATCC 49226
Description: (§1) Additional antibacterial testing of the series was performed in wild-type reference strains of N. gonorrhoeae (ATCC 49226, FA1090, WHO F and FA19). Liquid broth-based assays were used for antibacterial testing of PBP inhibitors in Neisseria gonorrhoeae. Briefly, cryo-preserved bacterial cultures of clinical strains are streaked for isolation on GC Base agar (BD #228950 at 36 g/L autoclaved at 121° C. for 20 minutes to sterilize) with 1% Kellogg's supplement (40 g glucose, 0.5 g glutamine, 0.05 g ferric nitrate and 2 mg cocarboxylase per 100 mL deionized water filter sterilized through 0.2 μm syringe filters). Following incubation at 36° C. and 5% CO2 to allow growth of colonies, strains are aseptically sub-cultured from original agar plate onto 3 agar plates per strain 24 hours before inoculum preparation. 2-fold serial dilutions of test compounds are conducted in a 96 well plate with a final volume of 150 μL per well at 4/3-fold the final desired concentration. For preparation of assay inoculum, a direct suspension is prepared by aseptically swabbing all colonies from sub-cultured agar plates into culture tubes containing 2 mL of fresh GC broth with […]. After the dilution plates are set up, direct suspensions are then diluted in a cuvette containing GC broth (15 g proteose peptone 43, 1 g corn starch, 4 g dipotassium phosphate, 1 g monopotassium phosphate and 5 g sodium chloride per liter of deionized water are mixed on a stir plate for 20 minutes, pH adjusted to 7.2+/−0.2 pH units with 1 N HCl, centrifuged at 10,000×g for 20 minutes to pellet undissolved corn starch and then autoclaved at 121° C. for 20 minutes to sterilize) and the optical density is measured at 600 nm. Inocula are diluted such that 50 μL of this culture in […] results in a starting bacterial concentration of 5×10^5 CFU/mL when added to the dilution plates. The plates are incubated 40-42 hours at 36° C. and 5% CO2. The MIC is read visually as the lowest concentration well with no bacterial growth.

[2] = test system: N. gonorrhoeae FA1090; experiment: Liquid broth MIC, N. gonorrhoeae FA1090; type: cell-based; conditions: Neisseria gonorrhoeae; N. gonorrhoeae FA1090, liquid broth; read-out: Minimum Inhibitory Concentration, N. gonorrhoeae FA1090
Description: as §1

[3] = test system: N. gonorrhoeae WHO F; experiment: Liquid broth MIC, N. gonorrhoeae WHO F; type: cell-based; conditions: Neisseria gonorrhoeae; N. gonorrhoeae WHO F, liquid broth; read-out: Minimum Inhibitory Concentration, N. gonorrhoeae WHO F
Description: as §1

[4] = test system: N. gonorrhoeae FA19; experiment: Liquid broth MIC, N. gonorrhoeae FA19; type: cell-based; conditions: Neisseria gonorrhoeae; N. gonorrhoeae FA19, liquid broth; read-out: Minimum Inhibitory Concentration, N. gonorrhoeae FA19
Description: as §1

[5] = test system: engineered strain of Escherichia coli harboring CTX-M15; experiment: microbe, parasite or virus in culture; type: cell-based; conditions: Escherichia coli, read-out: Microbiological Activity (MIC in mg/L), E. coli DH5α/pLBII-CTX-M15, engineered strain producing CTX-M15
Description: Briefly, cryo-preserved bacterial cultures of challenge strains are streaked for isolation on appropriate agar medium, in this case Mueller Hinton II agar. Following incubation to allow growth of the colonies, plates are sealed with parafilm and stored refrigerated for up to two weeks. For preparation of assay inoculum and to ensure low variability, at least 5 colonies are picked from the agar plates with an inoculating loop and aseptically transferred to a culture tube containing 3 mL of Mueller-Hinton Broth (supplemented with divalent cations to required levels based on Manufacturers' certification). The broth culture is grown for 3-5 hours at 37° C. with shaking at 200 rpm. Meanwhile, 2-fold serial dilutions of test compounds are conducted in a 96 well plate with a final volume of 75 μL per well at 2-fold the final desired concentration. After the dilution plates are set up the growing cultures are then diluted in a cuvette containing MH II broth and the optical density is measured at 600 nm. The Inoculum is diluted such that 75 μL of this culture in Mueller-Hinton Broth results in a starting bacterial concentration of 5×10^5 CFU/mL when added to the dilution plates. The plates are incubated for 16-20 hours at 37° C. The MIC values are read visually as the lowest concentration well with no bacterial growth.
To determine if test compounds were affected by CTX-M15, the most abundant extended spectrum […] in clinical settings worldwide, the inhibition of the growth of an engineered strain of Escherichia coli harboring CTX-M15 was tested. This strain was constructed by cloning the gene encoding CTX-M15 into the NdeI and BamHI restriction endonuclease sites of plasmid pLBII, placing the gene(s) under the control of the Lac promoter. The constructed expression plasmid for CTX-M15 was used to transform competent E. coli DH5α cells to make the engineered strain, including an empty pLBII vector control strain. The classic cell based broth microdilution MIC assay was employed as described above with the addition of control antibiotics, known to be degraded by β-lactamases (Ceftazidime, piperacillin and piperacillin+tazobactam).

[6] = biological target: E. coli PBP3 (Escherichia coli (strain K12), UniProt P0AD68); experiment: E. coli PBP3 Bocillin-FL fluorescence polarization competition binding assay
Summary of the method: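 Purified PBP (1.5 μM final) was combined with test compound (0–1000 μM) and Bocillin-FL (fluorescent penicillin V, 0.1 μM final) in 50 mM Hepes pH 8.0, 300 mM NaCl, 5% glycerol.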

[7] = test system: E. coli ATCC 25922; experiment: Broth microdilution MIC, E. coli ATCC 25922; type: cell-based; conditions: Escherichia coli, ATCC25922; E. coli ATCC 25922, broth microdilution; read-out: MIC E. coli 25922
Summary of the method: (§2)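 MIC = lowest concentration showing no visible growth after 16-20 h at 37° C. Cation-adjusted MH broth, 2-fold serial dilutions, starting inoculum 5×10^5 CFU/mL, per CLSI methods.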

[8] = test system: E. coli AG100; experiment: Broth microdilution MIC, E. coli AG100 (wild-type parent); type: cell-based; conditions: Escherichia coli; wild-type parent E. coli AG100, broth microdilution; read-out: MIC E. coli AG100
Summary of the method: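 Starting inoculum of 5×10^5 CFU/mL, from colonies grown 3-5 h in Mueller-Hinton broth with divalent cations, added to two-fold compound dilution series.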

[9] = test system: E. coli 901C; experiment: microbe, parasite or virus in culture; type: cell-based; conditions: Escherichia coli; hyper-permeable E. coli 901C, broth microdilution; read-out: MIC E. coli 901C
Summary of the method: as §2

[10] = test system: E. coli AG100A; experiment: microbe, parasite or virus in culture; type: cell-based; conditions: Escherichia coli, read-out: MIC E. coli AG100A
Summary of the method: as §2

[11] = test system: E. coli D22; experiment: microbe, parasite or virus in culture; type: cell-based; conditions: Escherichia coli; hyper-permeable E. coli D22, broth microdilution; read-out: MIC E. coli D22
Summary of the method: as §2

[12] = test system: K. pneumoniae SI-117; experiment: microbe, parasite or virus in culture; type: cell-based; conditions: Klebsiella pneumoniae, SI117, read-out: MIC K. pneumoniae SI-117
Summary of the method: as §2

[13] = test system: K. pneumoniae UMM; experiment: microbe, parasite or virus in culture; type: cell-based; conditions: Klebsiella pneumoniae; K. pneumoniae UMM producing SHV-5 and KPC-2; read-out: MIC K. pneumoniae UMM
Summary of the method: as §2

[14] = test system: K. pneumoniae 848844; experiment: microbe, parasite or virus in culture; type: cell-based, Klebsiella pneumoniae; conditions: Klebsiella pneumoniae; K. pneumoniae 848844 producing SHV-11 and KPC-2; read-out: MIC K. pneumoniae 848844
Summary of the method: as §2

[15] = fluorescence polarization competition binding with Bocillin-FL, read-out: E. coli K12 PBP3 Potency

Chain of E. coli PBP3 (P0AD68 whole entry): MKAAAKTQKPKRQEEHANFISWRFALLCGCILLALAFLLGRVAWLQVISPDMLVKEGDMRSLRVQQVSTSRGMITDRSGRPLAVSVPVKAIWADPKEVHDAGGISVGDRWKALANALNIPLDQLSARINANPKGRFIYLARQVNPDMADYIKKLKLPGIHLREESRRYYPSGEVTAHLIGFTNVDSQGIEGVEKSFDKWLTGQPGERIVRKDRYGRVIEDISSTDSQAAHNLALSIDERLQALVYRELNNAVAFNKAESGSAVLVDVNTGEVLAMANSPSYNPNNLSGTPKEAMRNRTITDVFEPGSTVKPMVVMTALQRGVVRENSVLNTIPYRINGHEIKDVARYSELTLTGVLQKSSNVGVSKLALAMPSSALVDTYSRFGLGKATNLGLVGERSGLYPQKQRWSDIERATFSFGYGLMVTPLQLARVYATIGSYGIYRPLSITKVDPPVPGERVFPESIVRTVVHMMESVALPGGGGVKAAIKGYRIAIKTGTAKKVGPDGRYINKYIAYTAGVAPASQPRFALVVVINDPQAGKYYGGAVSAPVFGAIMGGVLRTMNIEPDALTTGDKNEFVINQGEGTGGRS

Row | Structure (SMILES) | MIC [1] [µg/mL] | MIC [2] [µg/mL] | MIC [3] [µg/mL] | MIC [4] [µg/mL] | MIC [5] [mg/L] | pEC50 [6, 15] | pEC50 [6] | MIC [7] [µg/mL] | MIC [8] [µg/mL] | MIC [9] [µg/mL] | MIC [10] [µg/mL] | MIC [11] [µg/mL] | MIC [12] [µg/mL] | MIC [13] [µg/mL] | MIC [14] [µg/mL]
1 | O=C(O)c1cccc2c1OB(O)[C@@H](NC(=O)C(NC(=O)N1CCNC1=O)c1ccc(O)c(O)c1Cl)C2 (stereo partly drawn) [Example 52, (3R)-3-(2-(2-chloro-3,4-dihydroxyphenyl)-2-(2-oxoimidazolidine-1-carboxamido)acetamido)-2-hydroxy-3,4-dihydro-2H-benzo[e][1,2]oxaborinine-8-carboxylic acid] | 0.25 to 0.5 (≈ 0.482 to 0.964 µM) | < 0.125 | < 0.125 | > 64 | 128 to 256 (≈ 247 to 494 µM) |  |  |  |  |  |  |  |  |  | 
2 | CCN1CCN(C(=O)NC(C(=O)N[C@H]2Cc3cccc(C(=O)O)c3OB2O)c2ccc(-c3nnn[nH]3)cc2)C(=O)C1=O (stereo partly shown) [Example 93] | 4 to 8 (≈ 6.94 to 13.9 µM) | 0.25 to 0.5 (≈ 0.434 to 0.868 µM) | < 0.125 | 4 to 8 (≈ 6.94 to 13.9 µM) | 32 to 64 (≈ 55.5 to 111 µM) | > 4.52 |  |  |  |  |  |  |  |  | 
3 | CCN1CCN(C(=O)NC(C(=O)N[C@H]2Cc3cccc(C(=O)O)c3OB2O)c2ncc(N)cc2F)C(=O)C1=O (stereo partly drawn) [Example 214, (3R)-3-(2-(5-amino-3-fluoropyridin-2-yl)-2-(4-ethyl-2,3-dioxopiperazine-1-carboxamido)acetamido)-2-hydroxy-3,4-dihydro-2H-benzo[e][1,2]oxaborinine-8-carboxylic acid] | 4 to 8 (≈ 7.38 to 14.8 µM) | < 0.125 | < 0.125 | 4 to 8 (≈ 7.38 to 14.8 µM) |  |  | 3.30 to 4.52 | 8 to 16 | 32 to 64 | 0.5 to 1 | 2 to 4 | 2 to 4 | 32 to 64 | 32 to 64 | 32 to 64
4 | NC(=O)c1ccc(C(NC(=O)N2CCN(CCF)C(=O)C2=O)C(=O)N[C@H]2Cc3cccc(C(=O)O)c3OB2O)cc1 (stereo partly drawn) [Example 187, (3R)-3-(2-(4-carbamoylphenyl)-2-(4-(2-fluoroethyl)-2,3-dioxopiperazine-1-carboxamido)acetamido)-2-hydroxy-3,4-dihydro-2H-benzo[e][1,2]oxaborinine-8-carboxylic acid] | 0.25 to 0.5 (≈ 0.439 to 0.878 µM) | < 0.125 | < 0.125 | 0.25 to 0.5 (≈ 0.439 to 0.878 µM) |  |  | 3.30 to 4.52 | 32 to 64 | 8 to 16 | < 0.25 | 2 to 4 | 0.5 to 1 | > 128 | 32 to 64 | > 128
5 | NS(=O)(=O)c1ccc(C(NC(=O)N2CCN(CCF)C(=O)C2=O)C(=O)N[C@H]2Cc3cccc(C(=O)O)c3OB2O)cc1F (stereo partly drawn) [Example 211, (3R)-3-(2-(3-fluoro-4-sulfamoylphenyl)-2-(4-(2-fluoroethyl)-2,3-dioxopiperazine-1-carboxamido)acetamido)-2-hydroxy-3,4-dihydro-2H-benzo[e][1,2]oxaborinine-8-carboxylic acid] | 4 to 8 (≈ 6.42 to 12.8 µM) | 0.25 to 0.5 (≈ 0.401 to 0.802 µM) | 0.25 to 0.5 (≈ 0.401 to 0.802 µM) | 4 to 8 (≈ 6.42 to 12.8 µM) |  |  | 3.30 to 4.52 | 32 to 64 | 32 to 64 | < 0.25 | 2 to 4 | 2 to 4 | > 128 | 32 to 64 | > 128
6 | O=C(O)c1cccc2c1OB(O)[C@@H](NC(=O)C(NC(=O)N1CCN(CCF)C(=O)C1=O)c1ncc(O)cc1F)C2 (stereo partly drawn) [Example 179, (3R)-3-(2-(3-fluoro-5-hydroxypyridin-2-yl)-2-(4-(2-fluoroethyl)-2,3-dioxopiperazine-1-carboxamido)acetamido)-2-hydroxy-3,4-dihydro-2H-benzo[e][1,2]oxaborinine-8-carboxylic acid] | 0.25 to 0.5 (≈ 0.445 to 0.891 µM) | < 0.125 | < 0.125 | 4 to 8 (≈ 7.13 to 14.3 µM) |  | > 4.52 |  | 8 to 16 | 8 to 16 | < 0.25 | 0.5 to 1 | 0.5 to 1 | 8 to 16 | 2 to 4 | 32 to 64
7 | CCN1CCN(C(=O)NC(C(=O)N[C@H]2Cc3cccc(C(=O)O)c3OB2O)c2ncc(O)cn2)C(=O)C1=O (stereo partly drawn) [Example 202, (3R)-3-(2-(4-ethyl-2,3-dioxopiperazine-1-carboxamido)-2-(5-hydroxypyrimidin-2-yl)acetamido)-2-hydroxy-3,4-dihydro-2H-benzo[e][1,2]oxaborinine-8-carboxylic acid] | 4 to 8 (≈ 7.6 to 15.2 µM) | 0.25 to 0.5 (≈ 0.475 to 0.95 µM) | 0.25 to 0.5 (≈ 0.475 to 0.95 µM) | 4 to 8 (≈ 7.6 to 15.2 µM) |  |  | 3.30 to 4.52 | 32 to 64 | 32 to 64 | 0.5 to 1 | 2 to 4 | 8 to 16 | 32 to 64 | 32 to 64 | > 128
